Test results: patent publication US20110166123A1, “NOVEL COMPOSITIONS AND METHODS OF USE” (priority 2008, published 2011)

Test system: human immunodeficiency virus type 1 (HIV-1)
Experiment: microbe, parasite or virus in culture
Type: cell-based
Conditions: Human immunodeficiency virus 1, HeLa, 48 h, HIV-1 luciferase reporter, HeLa cells, 48 hours after infection

Compound	EC50 [nM]
COc1nc2c(cc1Cc1ccc(F)c(F)c1)c(=O)c(C(=O)O)cn2[C@H](CO)C(C)C [Example 1B]	> 100
COc1nc2c(cc1Cc1cccc(Cl)c1F)c(=O)c(C(=O)O)cn2[C@@H](CO)C(C)C [Example 1C]	10 to 100
COc1nc2c(cc1Cc1c(F)cc(F)cc1F)c(=O)c(C(=O)O)cn2[C@H](CO)C(C)C [Example 1D]	> 100
COc1nc2c(cc1Cc1ccc(F)cc1F)c(=O)c(C(=O)O)cn2[C@H](CO)C(C)C [Example 1E]	10 to 100
COc1nc2c(cc1Cc1cccc(Cl)c1F)c(=O)c(C(=O)O)cn2[C@@H](C)CO [Example 1F]	> 100
CCC(C)[C@@H](CO)n1cc(C(=O)O)c(=O)c2cc(Cc3cccc(Cl)c3F)c(OC)nc21 (stereo partly drawn) [Example 1G]	< 10
COc1nc2c(cc1Cc1cccc(Cl)c1F)c(=O)c(C(=O)O)cn2[C@H](CO)C(C)(C)C [Example 1H]	< 10
CC[C@@H](CO)n1cc(C(=O)O)c(=O)c2cc(Cc3cccc(Cl)c3F)c(OC)nc21 [Example 1I]	10 to 100
CCCC(CO)n1cc(C(=O)O)c(=O)c2cc(Cc3cccc(Cl)c3F)c(OC)nc21 (stereo not drawn) [Example 1J]	10 to 100
COc1nc2c(cc1Cc1cccc(Cl)c1F)c(=O)c(C(=O)O)cn2[C@H](CO)CC(C)C [Example 1K]	< 10
COc1nc2c(cc1Cc1cccc(Cl)c1F)c(=O)c(C(=O)O)cn2C(CO)CO [Example 1M]	> 100
COc1nc2c(cc1Cc1cccc(Cl)c1F)c(=O)c(C(=O)O)cn2C1CCOCC1 [Example 1N]	> 100
COc1nc2c(cc1Cc1cccc(Cl)c1F)c(=O)c(C(=O)O)cn2[C@H](CO)C1CCCCC1 [Example 1O]	< 10
COc1nc2c(cc1Cc1cccc(Cl)c1F)c(=O)c(C(=O)O)cn2[C@H]1CCCC[C@@H]1O [Example 1P]	> 100
COc1nc2c(cc1Cc1cccc(Cl)c1F)c(=O)c(C(=O)O)cn2C[C@H](O)c1ccccc1 [Example 1Q]	> 100
COc1nc2c(cc1Cc1cccc(Cl)c1F)c(=O)c(C(=O)O)cn2C[C@@H](O)c1ccccc1 [Example 1R]	> 100
CC(C)(C)[C@@H](CO)n1cc(C(=O)O)c(=O)c2cc(Cc3cccc(Cl)c3F)c(N3CCOCC3)nc21 [Example 2A, (S)-6-(3-chloro-2-fluorobenzyl)-7-morpholin-1-(1-hydroxy-3,3-dimethylbutan-2-yl)-4-oxo-1,4-dihydro-1,8-naphthyridine-3-carboxylic acid]	< 10
COCCN1CCN(c2nc3c(cc2Cc2cccc(Cl)c2F)c(=O)c(C(=O)O)cn3[C@H](CO)C(C)(C)C)CC1 [Example 2AA]	10 to 100
CC(C)(C)[C@@H](CO)n1cc(C(=O)O)c(=O)c2cc(Cc3cccc(Cl)c3F)c(O)nc21 [Example 2B, (S)-6-(3-chloro-2-fluorobenzyl)-7-hydroxy-1-(1-hydroxy-3,3-dimethylbutan-2-yl)-4-oxo-1,4-dihydro-1,8-naphthyridine-3-carboxylic acid]	10 to 100
CC(C)(C)[C@@H](CO)n1cc(C(=O)O)c(=O)c2cc(Cc3cccc(Cl)c3F)c(NCCN3CCOCC3)nc21 [Example 2CC]	< 10

Compound	EC50 [nM]
CCOc1nc2c(cc1Cc1cccc(Cl)c1F)c(=O)c(C(=O)O)cn2[C@H](CO)C(C)(C)C [Example 2C]	< 10
CC(C)(C)[C@@H](CO)n1cc(C(=O)O)c(=O)c2cc(Cc3cccc(Cl)c3F)c(NCCCN3CCOCC3)nc21 [Example 2DD]	< 10
CC(C)Oc1nc2c(cc1Cc1cccc(Cl)c1F)c(=O)c(C(=O)O)cn2[C@H](CO)C(C)(C)C [Example 2D]	10 to 100
CC(C)(C)[C@@H](CO)n1cc(C(=O)O)c(=O)c2cc(Cc3cccc(Cl)c3F)c(NCCCN3CCCC3=O)nc21 [Example 2EE]	< 10
CC(C)(C)[C@@H](CO)n1cc(C(=O)O)c(=O)c2cc(Cc3cccc(Cl)c3F)c(OCCO)nc21 [Example 2E]	< 10
CC(C)(C)[C@@H](CO)n1cc(C(=O)O)c(=O)c2cc(Cc3cccc(Cl)c3F)c(NCc3ccccn3)nc21 [Example 2FF]	< 10
CC(C)(C)[C@@H](CO)n1cc(C(=O)O)c(=O)c2cc(Cc3cccc(Cl)c3F)c(OCCCO)nc21 [Example 2F]	< 10
CC(C)(C)[C@@H](CO)n1cc(C(=O)O)c(=O)c2cc(Cc3cccc(Cl)c3F)c(NCCCn3ccnc3)nc21 [Example 2GG]	10 to 100
CC(C)(C)[C@@H](CO)n1cc(C(=O)O)c(=O)c2cc(Cc3cccc(Cl)c3F)c(OCCCCO)nc21 [Example 2G]	10 to 100
CC(C)(C)[C@@H](CO)n1cc(C(=O)NCCCn2ccnc2)c(=O)c2cc(Cc3cccc(Cl)c3F)c(NCCCn3ccnc3)nc21 [Example 2HH]	> 100
COCCOc1nc2c(cc1Cc1cccc(Cl)c1F)c(=O)c(C(=O)O)cn2[C@H](CO)C(C)(C)C [Example 2H]	< 10
COc1nc2c(cc1Cc1cccc(Cl)c1F)c(=O)c(C(=O)NCCO)cn2[C@H](CO)C(C)C [Example 2II]	> 100
COCCCOc1nc2c(cc1Cc1cccc(Cl)c1F)c(=O)c(C(=O)O)cn2[C@H](CO)C(C)(C)C [Example 2I]	10 to 100
CC(C)(C)[C@@H](CO)n1cc(C(=O)O)c(=O)c2cc(Cc3cccc(Cl)c3F)c(F)nc21 [Example 2JJ]	10 to 100
COCCCCOc1nc2c(cc1Cc1cccc(Cl)c1F)c(=O)c(C(=O)O)cn2[C@H](CO)C(C)(C)C [Example 2J]	10 to 100
CC(C)[C@@H](CO)n1cc(C(=O)O)c(=O)c2cc(Cc3cccc(Cl)c3F)c(F)nc21 [Example 2KK]	10 to 100
CN(C)CCOc1nc2c(cc1Cc1cccc(Cl)c1F)c(=O)c(C(=O)O)cn2[C@H](CO)C(C)(C)C [Example 2K]	10 to 100
CN(C)CCCOc1nc2c(cc1Cc1cccc(Cl)c1F)c(=O)c(C(=O)O)cn2[C@H](CO)C(C)(C)C [Example 2L]	10 to 100
CC(C)(C)[C@@H](CO)n1cc(C(=O)O)c(=O)c2cc(Cc3cccc(Cl)c3F)c(OCCN3CCOCC3)nc21 [Example 2M]	10 to 100
CC(C)(C)[C@@H](CO)n1cc(C(=O)O)c(=O)c2cc(Cc3cccc(Cl)c3F)c(OCc3cccnc3)nc21 [Example 2N]	< 10

Compound	EC50 [nM]
CC(C)(C)[C@@H](CO)n1cc(C(=O)O)c(=O)c2cc(Cc3cccc(Cl)c3F)c(OCCN3CCCC3)nc21 [Example 2O]	10 to 100
CN(C)c1nc2c(cc1Cc1cccc(Cl)c1F)c(=O)c(C(=O)O)cn2[C@H](CO)C(C)(C)C [Example 2P]	10 to 100
CC(C)(C)[C@@H](CO)n1cc(C(=O)O)c(=O)c2cc(Cc3cccc(Cl)c3F)c(NCCO)nc21 [Example 2R]	< 10
CC(C)(C)[C@@H](CO)n1cc(C(=O)O)c(=O)c2cc(Cc3cccc(Cl)c3F)c(NCCCO)nc21 [Example 2S]	10 to 100
COCCNc1nc2c(cc1Cc1cccc(Cl)c1F)c(=O)c(C(=O)O)cn2[C@H](CO)C(C)(C)C [Example 2T]	< 10
COCCCNc1nc2c(cc1Cc1cccc(Cl)c1F)c(=O)c(C(=O)O)cn2[C@H](CO)C(C)(C)C [Example 2U]	< 10
CC(C)(C)[C@@H](CO)n1cc(C(=O)O)c(=O)c2cc(Cc3cccc(Cl)c3F)c(N3CC[C@@H](O)C3)nc21 [Example 2W]	10 to 100
CC(C)(C)[C@@H](CO)n1cc(C(=O)O)c(=O)c2cc(Cc3cccc(Cl)c3F)c(N3CCC(O)CC3)nc21 [Example 2X]	10 to 100
CC(C)(C)[C@@H](CO)n1cc(C(=O)O)c(=O)c2cc(Cc3cccc(Cl)c3F)c(N3CCC(CO)CC3)nc21 [Example 2Y]	10 to 100
CC(C)(C)[C@@H](CO)n1cc(C(=O)O)c(=O)c2cc(Cc3cccc(Cl)c3F)c(N3CCN(CCO)CC3)nc21 [Example 2Z]	10 to 100
CC(C)(C)[C@@H](CO)n1cc(C(=O)O)c(=O)c2cc(Cc3cccc(Cl)c3F)c(N)nc21 [Example 3A, (S)-7-Amino-6-(3-chloro-2-fluorobenzyl)-1-(1-hydroxy-3,3-dimethylbutan-2-yl)-4-oxo-1,4-dihydro-1,8-naphthyridine-3-carboxylic acid]	< 10
Cc1nc2c(cc1Cc1cccc(Cl)c1F)c(=O)c(C(=O)O)cn2[C@H](CO)C(C)(C)C [Example 3B, 6-(3-Chloro-2-fluorobenzyl)-1-((S)-1-hydroxymethyl-2,2-dimethyl-propyl)-7-methyl-4-oxo-1,4-dihydro-1,8-naphthyridine-3-carboxylic acid]	10 to 100
CC(C)(C)[C@@H](CO)n1cc(C(=O)O)c(=O)c2cc(Cc3cccc(Cl)c3F)c(CCCO)nc21 [Example 3C, 6-(3-Chloro-2-fluoro-benzyl)-1-((S)-1-hydroxymethyl-2,2-dimethyl-propyl)-7-(3-hydroxy-propyl)-4-oxo-1,4-dihydro-1,8-naphthyridine-3-carboxylic acid]	< 10
CC(C)[C@@H](CO)n1cc(C(=O)O)c(=O)c2cc(Cc3cccc(Cl)c3F)cnc21 [Example 4A, (S)-6-(3-chloro-2-fluorobenzyl)-1-(1-hydroxy-3-methylbutan-2-yl)-4-oxo-1,4-dihydro-1,8-naphthyridine-3-carboxylic acid]	10 to 100
CC(C)[C@@H](CO)n1cc(C(=O)O)c(=O)c2cc(Cc3ccccc3F)cnc21 [Example 4B]	> 100
CC(C)[C@@H](CO)n1cc(C(=O)O)c(=O)c2cc(Cc3ccccc3)cnc21 [Example 4C]	> 100
O=C(O)c1cn(CCO)c2ncc(Cc3cccc(Cl)c3F)cc2c1=O [Example 4D]	> 100
O=C(O)c1cn(CCO)c2ncc(Cc3cccc(Cl)c3Cl)cc2c1=O [Example 4E]	> 100
CC(C)[C@@H](CO)n1cc(C(=O)O)c(=O)c2cc(Cc3cccc(Cl)c3F)ncc21 [Example 5A, 6-(3-Chloro-2-fluoro-benzyl)-1-((S)-1-hydroxymethyl-2-methyl-propyl)-4-oxo-1,4-dihydro-[1,7]naphthyridine-3-carboxylic acid]	10 to 100
CC(C)[C@@H](CO)n1cc(C(=O)O)c(=O)c2cc(Cc3ccc(F)c(F)c3)ncc21 [Example 5B, 6-(3,4-Difluoro-benzyl)-1-((S)-1-hydroxymethyl-2-methyl-propyl)-4-oxo-1,4-dihydro-[1,7]naphthyridine-3-carboxylic acid]	> 100
